# Source: patent US20210379063A1, “ORAL AMINODIHYDROPHTHALAZINEDIONE COMPOSITIONS AND THEIR USE IN THE TREATMENT OF NON-VIRAL HEPATITIS” (Immunopharma Plus D.O.O., priority 2018, published 2021)
# “Also recorded” adds a separate entry of the source. Where two headings read alike, the source gives them in different places.
# What was measured:
# [1] = tested on: porcine stomach (cardia); settings: for concentration in receptor compartment, Propranolol stomach, AVG / concentration in receptor compartment, Propranolol stomach: 10 mM donor solution; for concentration in receptor compartment, Propranolol stomach: single chambers
# [2] = tested on: porcine small intestine
# Experimental: Porcine Small Intestinal (SI) Permeability Procedure • Full thickness pig small intestinal delivered to Solubest on the day of the experiment. • Experiments were carried out on 6 slices 2 cm*2 cm with full thickness pig small intestinal sample • The intestinal was prepared so brush border side is facing the donor compartment. • According to Solubest protocol the excess mucus and connective tissue were removed • The receiver compartment contains 0.01M Phosphate Buffer pH 7.4 (PBS). • Receiver's samples were withdrawn at 5 time points (30 min, 60 min, 120 min, 4 hours and 6 hours). • Water pump was set to temp 38±1° C. in order to keep fixed temp in receptor department at 37±1° C.
# [3] = in vitro; settings: pig, pH 7.4
# Experimental: (§1) The intestine was prepared so the mucous side will be facing the donor compartment.
# [4] = tested on: porcine large intestine (colon); test: in vitro; settings: pig, 10 mM, pH 7.4
# Experimental: as §1
# [5] = cited from earlier work
# [6] = tested on: PHMG poisoning; test: Acute hepatitis caused by alcohol substitute PHMG in rats; settings: single intraperitoneal injection, 50 mg/100 g
# Experimental: The experiment was carried out on 25 male white outbred rats weighing 200-300 g, in accordance with the recommendations of the international ethics committees on the humane treatment of laboratory animals (EU Council Directive 86/609 EEC dated Nov. 24, 1986). To create an experimental model, an aqueous solution of PHMG was used, which was administered intraperitoneally at a dose of 50 mg/100 g.
compound,measurement,setting,value
CC(C)NCC(O)COc1cccc2ccccc12 (centres unmarked) [Propranolol],"permeation through stomach tissue, in words",[1],almost no permeation; also recorded: poorly penetrate through the stomach tissue
same,"concentration in receptor compartment, Propranolol stomach, AVG",[1]; 0 min,0 ng/mL
same,"concentration in receptor compartment, Propranolol stomach",[1]; 0 min,0 ng/mL
same,"concentration in receptor compartment, Propranolol stomach, AVG",[1]; 30 min,0 ng/mL
same,"concentration in receptor compartment, Propranolol stomach",[1]; 30 min,0 ng/mL
same,"concentration in receptor compartment, Propranolol stomach, AVG",[1]; 60 min,0 ng/mL
same,"concentration in receptor compartment, Propranolol stomach",[1]; 60 min,0 ng/mL
same,"concentration in receptor compartment, Propranolol stomach, AVG",[1]; 120 min,0 ng/mL
same,"concentration in receptor compartment, Propranolol stomach",[1]; 120 min,0 ng/mL
same,"concentration in receptor compartment, Propranolol stomach, AVG",[1]; 240 min,0 ng/mL
same,"concentration in receptor compartment, Propranolol stomach",[1]; 240 min,0 ng/mL
same,"concentration in receptor compartment, Propranolol stomach, AVG",[1]; 420 min,0 ng/mL
same,"concentration in receptor compartment, Propranolol stomach",[1]; 420 min,0 ng/mL
same,"permeability through small intestine tissue, in words",[2],well adsorbed
same,"concentration in receptor compartment, small intestine, AVG","[2]; 10 mM donor solution, 0 min",0 ng/mL
same,"concentration in receptor compartment, small intestine","[2]; 10 mM donor solution, 0 min, single chambers",0 ng/mL
same,"concentration in receptor compartment, small intestine, AVG","[2]; 10 mM donor solution, 30 min",1000 ng/mL
same,"concentration in receptor compartment, small intestine, AVG","[2]; 10 mM donor solution, 60 min",5000 ng/mL
same,"concentration in receptor compartment, small intestine, AVG","[2]; 10 mM donor solution, 120 min",13000 ng/mL
same,"concentration in receptor compartment, small intestine, AVG","[2]; 10 mM donor solution, 240 min",33000 ng/mL
same,"concentration in receptor compartment, small intestine, AVG","[2]; 10 mM donor solution, 360 min",55000 ng/mL
same,"permeability through small intestine tissue, in words",[2]; listed as propranolol,permeates well
same,"recovery at 0 min, 10 mM",[3],0%
same,"recovery at 30 min, 10 mM",[3],0.16%
same,"recovery at 60 min, 10 mM",[3],0.4%
same,"recovery at 120 min, 10 mM",[3],1.04%
same,"recovery at 240 min, 10 mM",[3],2.36%
same,"recovery at 360 min, 10 mM",[3],3.43%
same,"recovery at 720 min, 10 mM",[3],6.47%
same,"concentration in receptor comp, large intestine, AVG",[4]; 0 min,0 ng/mL
same,"concentration in receptor compartment, large intestine",[4]; 0 min,0 ng/mL
same,mg in receptor comp,[4]; 0 min,0.000 mg
same,"concentration in receptor comp, large intestine, AVG",[4]; 30 min,2000 ng/mL
same,mg in receptor comp,[4]; 30 min,0.010 mg
same,"concentration in receptor comp, large intestine, AVG",[4]; 60 min,5000 ng/mL
same,mg in receptor comp,[4]; 60 min,0.026 mg
same,"concentration in receptor comp, large intestine, AVG",[4]; 120 min,14000 ng/mL
same,mg in receptor comp,[4]; 120 min,0.068 mg
same,"concentration in receptor comp, large intestine, AVG",[4]; 240 min,31000 ng/mL
same,mg in receptor comp,[4]; 240 min,0.154 mg
same,"concentration in receptor comp, large intestine, AVG",[4]; 360 min,45000 ng/mL
same,mg in receptor comp,[4]; 360 min,0.223 mg
same,"concentration in receptor comp, large intestine, AVG",[4]; 720 min,84000 ng/mL
same,mg in receptor comp,[4]; 720 min,0.421 mg
same,time of peak plasma levels,[5]; after ingestion,1 to 3 h
same,BSC classification,"[5]; high solubility, high permeability",class 1
polyhexamethyleneguanidine [PHMG],mortality,[6],about 70%
